system: sterol synthesis; assay: CSI screen: incorporation of 14C-acetate into nonsaponifiable lipid by rat liver homogenate (inhibition of cholesterol biosynthesis); format: biochemical; conditions: 50% inhibition of sterol synthesis over a one-hour period, livers of rats fed 5% cholestyramine chow for four days
Description: The ability of compounds of the present invention to inhibit the biosynthesis of cholesterol was measured by a method (designated CSI screen) which utilizes the procedure described by R. E. Dugan et al, Archiv. Biochem. Biophys., (1972), 152, 21-27. In this method, the level of HMG-CoA enzyme activity in standard laboratory rats is increased by feeding the rats a chow diet containing 5% cholestyramine for four days, after which the rats are sacrificed.
The rat livers are homogenized, and the incorporation of 14C-acetate into nonsaponifiable lipid by the rat liver homogenate is measured. The micromolar concentration of compound required for 50% inhibition of sterol synthesis over a one-hour period is measured, and expressed as an IC50 value.
The activities of several representative examples of compounds in accordance with the present invention appear in Table 1.

IC50 [nM]	SMILES
220	Cc1cc(C)cc(-c2nc(-c3ccccc3)nc(C)c2/C=C/[C@@H]2C[C@@H](O)CC(=O)O2)c1 (relative stereo) [[4α, 6β(E)]-6-[2-[4-(3,5-Dimethylphenyl)-6-methyl-2-phenyl-5-pyrimidinyl]ethenyl]-tetrahydro-4-hydroxy-2H-pyran-2-one]
130	Cc1nc(C)c(/C=C/[C@@H]2C[C@@H](O)CC(=O)O2)c(-c2ccc(F)cc2)n1 (relative stereo) [[4α, 6β(E)]-6-[2-[4-(4-Fluorophenyl)-2,6-dimethyl-5-pyrimidinyl]ethenyl]tetrahydro-4-hydroxy-2H-pyran-2-one]
150	Cc1nc(-c2ccccc2)nc(-c2ccc(F)cc2)c1/C=C/[C@@H]1C[C@@H](O)CC(=O)O1 (relative stereo) [[4α, 6β(E)]-6-[2-[4-(4-Fluorophenyl)-6-methyl-2-phenyl-5-pyrimidinyl]ethenyl]tetrahydro-4-hydroxy-2H-pyran-2-one]
